Measurements reported in BigSolDB 2.1.

CC(=O)Nc1ccc(O)cc1
solubility (mole fraction)
Conditions | 293.2 K | 298.2 K | 303.2 K | 308.2 K | 313.2 K
in acetonitrile | 0.00682 | 0.00805 | 0.00935 | 0.0107 | 0.0118
in water | 0.00164 | 0.00202 | 0.00229 | 0.00284 | 0.00313
